Groups on a side chain read outwards from the residue. No end group written: not given here. BMPH = maleimide-and-hydrazide crosslinker; PPCN hydrogel = not defined here
Key:
[1] = tested on: human dermal fibroblasts and human epithelial keratinocytes; assay: Self-assembled monolayer (SAM) cell adhesion assay; format: cell-based; details: HDFs and HEKas
Description: Cysteine-terminated peptides were synthesized manually on Fmoc-Rink amide MHBA resin using a standard solid phase peptide synthesis protocol. They were purified using reverse-phase HPLC with a C18 column, and the final products were characterized by matrix-assisted laser desorption/ionization time of flight mass spectrometry (MALDI-TOF MS). Self-assembled monolayer cell adhesion assay was performed (ref 56; incorporated by reference in its entirety). Maleimide-terminated alkanethiol was self-assembled on the gold surfaces to form the well-organized monolayer. Known amount of characterized Cysteine-terminated peptides were dissolve in 0.1% trifluoroacetic acid solution and incubate with the surface to allow peptide absorption on the surface via thiol-maleimide reaction. The resulting surfaces were characterized by MALDI-TOF MS for peptide adsorption before being used for HDFs and HEKas adhesion studies. The adherent cells were counted 2 hours after the initial seeding. […]
The synthesized peptides were immobilized onto SAM chips by incubating the chips with 100 μM peptide solution in PBS at room temperature for 1 hr. […] Peptide chips were then mounted with Vectashield+DAPI and imaged on a Nikon Eclipse TE2000-U inverted fluorescence microscope. The number of cells per field of view was counted using ImageJ software. […]

[2] = tested on: integrin α3 and α6 on HDFs; assay: Proliferation inhibition with anti-integrin α3 and α6 antibodies; format: cell-based, human; details: 5 days
Description: The mouse monoclonal antibody against human integrin α6 and α3 were purchased from Santa Cruz (Dallas, T A), and dialyzed with 10,000 MWCO Dialysis Cassettes dialysis cassette (Thermo Scientific) overnight to remove the sodium azide. […] Before cell encapsulation, HDFs were pre-incubated in suspension with corresponding anti-integrin antibodies (final concentration 10 μg/mL) for 15 min at 37° C. Then the pre-treated HDFs (1×10^4 cells per 50 μL scaffold per well) were incubated on the ultra-low attachment plate (Coring, Coring, NY) for 5 days at 37° C. in 5% CO2. Anti-integrin antibodies treatments were also added in the culture media for the corresponding groups (10 μg/mL), and the media was changed every other day. After 5 days of incubation, total DNA content within each scaffold was quantified using PicoGreen DNA quantification assay as mentioned above.

[3] = tested on: HDFs; assay: PicoGreen total DNA quantification (proliferation in 3D culture); format: cell-based, human; details: HDFs in gel, over the course of 10 days
Description: HDF encapsulated hydrogel scaffold samples were prepared and cultured using the same method as the in vitro 3D cell culture with 10 K cells per 50 μl hydrogel per sample. At each time point, after removing the medium, the samples were cooled on ice, and the cells were lysed by PBS-3% Triton-X. The Quant-iT PicoGreen dsDNA assay kit (Life Technologies) was employed according to the manufacturer's protocol, and the results were read in triplicates. Samples of […] were accessed using microplate reader (Tecan, Männedorf, Switzerland); fluorescence was quantified at 520 nm with excitation at 480 nm.

[4] = tested on: HDFs; assay: Cell cycle analysis by flow cytometry with propidium iodide; format: cell-based, human; details: HDFs in gel
Description: A flow cytometric analysis, with propidium iodide (PI), was performed in order to measure the cell cycle activity. At each time point, cell encapsulated scaffolds were liquefied, and the cells were extracted via centrifuging. The cells were then washed with ice-cold PBS, and fixed with 70% ice-cold ethanol for 1 h before repeated washing with PBS and re-suspension in PBS with 0.5 mg/mL Rnase A (Thermo Fisher Scientific). After 1 h incubation, the cellular DNA was then stained with PI (50 μg/mL) for 20 min while protected from the light at 4° C. The relative DNA concentration of the stained cells was measured using a BD LSRII flow cytometer (Becton Dickinson, San Jose, Calif.).

[5] = tested on: Human dermal fibroblasts; assay: In vitro 3D cell culture, live/dead stain, confocal imaging of cell spreading; format: cell-based; details: HDFs
Description: Cell culture medium (KGM-Gold for HEKa, DMEM+10% FBS for HDF) was then added to each well, and cells were cultured at 37° C. and 5% CO2. After 5 or 10 days, the gels were washed twice with warm 1×PBS, and stained with live/dead stain (2 uM calcein AM and 2 uM ethidium homodimer-1) at 37° C. for 15 min. The samples were then washed twice with warm 1×PBS and imaged on a Nikon C2 Confocal microscope.

[6] = tested on: db/db mice full-thickness wound; assay: Diabetic splinted excisional wound healing model, wound closure; format: in vivo, mouse
Description: To prevent skin contraction, paired pre-sterilized doughnut-shaped splints (10-mm inner diameter; 12-mm outer diameter) made from 0.5-mm-thick acrylate tape (3M, St. Paul, Minn.) were attached to the left and right dorsal sides of the mouse with Vetbond (3M) and interrupted 6-0 nylon sutures (Ethicon, Cincinnati, Ohio) after depilation. A 6-mm circular, full-thickness wound was made in the center of each splinted area. 40 μl of gel solution was applied to each wound bed. A transparent sterile occlusive dressing TegaDerm™ (3M) was then placed over the wound and the splint. Digital images of the wound area were taken every other day, and quantified in ImageJ by normalizing the wound area to the known splint area at each time point. Hydrogel dressings were reapplied on day 6, after gently rinsing the wound with cold 1× PBS.

[7] = tested on: db/db mice wound tissue; assay: Histology and immunofluorescence of regenerated wound tissue; format: in vivo, mouse
Description: Upon full closure of the wounds (for the first batch study) or 10 days after the initial wound surgery (for the second batch study), animals were euthanized and the regenerated wound tissue was excised with a 10-mm biopsy punch (Acuderm, Fort Lauderdale, Fla.), fixed using 4% paraformaldehyde and embedded by paraffin. The tissues were then sectioned and processed for hematoxylin and eosin (H&E) staining to measure granulation tissue thickness, and the epithelial gap histomorphometrically. The granulation tissue thickness and epithelial gap was measured based on 5 different H&E images for each group by blinded observer using ImageJ. The tissue sections were also stained for Keratin 10, Integrin α3 or F4/80 (Santa Cruz, Dallas, Tex.) The secondary antibodies used were either conjugated to AlexaFluor488 or AlexaFluor555 (Invitrogen, Carlsbad, Calif.).

| Substance | cell adhesion on SAMs presenting the peptide [1] | cell proliferation (total DNA) under complete blocking ([2]; both anti-α3 and anti-α6, 10 μg/mL) | cell proliferation (total DNA) under partial blocking ([2]; only anti-α3 or anti-α6, 10 μg/mL) | cell proliferation rate (total DNA content) [3] | S phase percentage ([4]; day 5) [%] | S phase percentage ([4]; day 10) [%] | cell spreading in 3D culture ([5]; day 5) | cell spreading in 3D culture ([5]; day 10) | time to complete wound closure [6] [days] | percent wound closure ([6]; day 10) [%] | complete closure faster than P-RGD ([6]; versus P-RGD) [days] | complete closure faster than PPCN and P-IP ([6]; versus PPCN and P-IP) | granulation tissue thickness ([7]; by the time of closure, compared with PPCN, P-RGD and P-IP groups) | wound histology at day 10 within the same animal ([7]; db/db mice, day 10, P-A5G81 side vs P-IP side) | epidermal gap relative to that of the P-IP control wounds ([7]; db/db mice, day 10, after two applications) [%] | epithelial gap ([7]; db/db mice, day 30) [μm] | integrin α3 positive cells in wound tissue ([7]; db/db mice, day 30) | wound opening relative to the initial wound size ([7]; db/db mice, day 30) | macrophage marker F4/80 staining ([7]; db/db mice, day 30, foreign body response) | Keratin 10 staining, epithelium structure ([7]; db/db mice, day 30, wound centre) |
| --- | --- | --- | --- | --- | --- | --- | --- | --- | --- | --- | --- | --- | --- | --- | --- | --- | --- | --- | --- | --- |
| A5G81: 12 amino acid laminin α5 globular domain derived peptide AGQWHRVSVRWG (listed as Mus musculus) | excellent cell adhesion properties | – | – | – | – | – | – | – | – | – | – | – | – | – | – | – | – | – | – | – |
| IP: inactive form of A5G81 (WHRVSVC), negative control (WHRVSVC-NH2) [reference compound] | very low cell adhesive properties | – | – | – | – | – | – | – | – | – | – | – | – | – | – | – | – | – | – | – |
| P-A5G81: PPCN hydrogel conjugated via BMPH linker to cysteine-terminated A5G81 peptide (AGQWHRVSVRWGC([BMPH-PPCN hydrogel])-NH2; reading uncertain; also: conjugated to PPCN hydrogel via BMPH linker at C-terminal Cys) | – | close to the unfunctionalized PPCN scaffold | partial decrease of the cell proliferation | higher cell proliferation rate | 21 | 26.6 | began to spread | fully elongated with typical fibroblast morphology | 21 | 45.3 | 3 | one week faster | significantly thicker | thick granulation tissue was already prominent | 25 | 340 | significant amount of α3 positive cells | around 5% | minimum amount of macrophages | multi-layer epithelium structure |

— US10463745B2, “Materials for tissue regeneration” (Northwestern University, priority 2015, dated 2019)
